Assay results: US4096252A, “4-Trifluoromethylbenzoic acid derivatives as thromboembolic agents” (priority 1976, dated 1978)
Where two headings read alike, the source gives them in different places.

Assays:
rat platelet aggregation = experiment: In vitro inhibition of rat platelet aggregation (Born and Cross method); type: cell-based; conditions: Rattus norvegicus, Platelet, rat plasma, read-out: Platelet Aggregation Inhibition (PAI); for inhibition at 8300 µM: plasma concentration 8.30×10^-3 molar
Description: Platelet aggregation was measured according to the method of Born and Cross (8) by using rat and human plasma.

gastric mucosa = conditions: rat, in vivo
Description: For this reason this compound has not been included in further in vivo experimentation. However, the other two compounds were well tolerated and satisfactory low acute toxicity values were found (approximately 500 mg/kg for both substances).

[1] = test system: human platelet aggregation; experiment: In vitro inhibition of human platelet aggregation (Born and Cross method); type: cell-based; conditions: read-out: Platelet Aggregation Inhibition (PAI); for inhibition at 8300 µM: plasma concentration 8.30×10^-3 molar
Description: Platelet aggregation was measured according to the method of Born and Cross (8) by using rat and human plasma. The results are summarized below in Tables I and II.
Key : PC = Plasma Concentration: PAI = Platelet Aggregation
*The percent of inhibition was calculated using the method described by
McKenzie (Proc. Soc. Exp. Biol. Med. 137: 662, 1971).

O=C(O)c1ccc(C(F)(F)F)cc1O [2-hydroxy-4-trifluoromethylbenzoic acid]
inhibition at 6250 µM (rat platelet aggregation; ADP 4.1×10^-6 M, plasma concentration 6.25×10^-3 molar): 60.2%
inhibition at 8300 µM (rat platelet aggregation; ADP 4.1×10^-6 M): 89.2%
inhibition at 4150 µM (rat platelet aggregation; Collagen 33.3 μg/ml, plasma concentration 4.15×10^-3 molar): 27.2%
inhibition at 8300 µM (rat platelet aggregation; Collagen 33.3 μg/ml): 48.3%
gastro-intestinal disturbances (in words) (gastric mucosa): high incidence of serious gastro-intestinal disturbances, including bleeding of the gastric mucosa and peptic ulcers
inhibition at 6250 µM ([1]; ADP 1.6×10^-6 M, plasma concentration 6.25×10^-3 molar): 70%
inhibition at 8300 µM ([1]; ADP 1.6×10^-6 M): 100%
inhibition at 8300 µM ([1]; Collagen 33.3 mcg/ml): 58%
inhibition at 17000 µM ([1]; Collagen 33.3 mcg/ml, plasma concentration 17.0×10^-3 molar): 75%
inhibition at 3300 µM ([1]; Epinephrine 1.4×10^-6 M, plasma concentration 3.30×10^-3 molar): 32%
inhibition at 8100 µM ([1]; Epinephrine 1.4×10^-6 M, plasma concentration 8.10×10^-3 molar): 91%
